± gives the expanded uncertainty stated by the source.
Details: Crystal; DTA

Normal melting temperature: 152.4 ± 1.1 °C
Compound: O=C(O)CCCCC(=O)O [1,6-hexanedioic acid]

Source: the NIST ThermoML archive (doi:10.1021/acs.jced.5b00880)
